{"source": "patent US5627152A", "about": "“Method for increasing bodyweight” (Telluride Pharmaceutical Corporation, priority 1995, dated 1997)", "key": {"[1]": {"assay": "Oral glutathione capsules in healthy subjects: bodyweight and percent bodyfat by the caliper method", "assay_type": "in vivo, human", "conditions": "for percentage bodyfat at end of treatment: caliper method", "experimental": "A healthy subject who wished to gain more weight in the form of lean muscle tissue, was treated for five weeks with one capsule containing 250 mg glutathione four times daily resulting in a total daily dosage of 1000 mg glutathione.\nA healthy subject who wished to add bodyweight in the form of lean muscle, was treated for seven weeks with one capsule containing 500 mg of glutathione, four times per day. The totally daily dose was 2,000 mg of glutathione.\nA […] healthy male subject who wished to add bodyweight in the form of lean muscle, was treated for seven weeks with two capsule of 500 mg of glutathione, three times per day. The totally daily dose was 3,000 mg of glutathione.\nA healthy subject who wished to add bodyweight in the form of lean muscle was treated for six weeks with two capsules containing 500 mg of glutathione, twice daily. The totally daily dose was 2,000 mg of glutathione."}, "guinea pigs": {"test_system": "guinea pigs", "conditions": "high doses; cited from earlier work"}}, "data": [{"compound": "N[C@@H](CCC(=O)N[C@@H](CS)C(=O)NCC(=O)O)C(=O)O", "note": "[glutathione, -L-glutamyl-cysteinylglycine]", "values": [{"measurement": "percentage bodyfat at end of treatment", "setting": "[1]; Example 1: 1000 mg/day, five weeks, start 20.1%", "result": 18.6, "unit": "%"}, {"measurement": "fat at end of treatment", "setting": "[1]; Example 1: 1000 mg/day, five weeks, start 25 pounds", "result": 24, "unit": "pounds"}, {"measurement": "muscle, bone and connective tissue at end of treatment", "setting": "[1]; Example 1: 1000 mg/day, five weeks, start 100 pounds", "result": 105, "unit": "pounds"}, {"measurement": "percent change in lean bodyweight (gain)", "setting": "[1]; Example 1: 1000 mg/day, five weeks, without a change in diet or exercise regimen", "result": 5, "unit": "%"}, {"measurement": "bodyweight at end of treatment", "setting": "[1]; Example 1: healthy person, 250 mg capsule four times daily (1000 mg/day), five weeks, start 125 pounds", "result": 129, "unit": "pounds"}, {"measurement": "percentage bodyfat at end of treatment", "setting": "[1]; Example 2: 2,000 mg/day, seven weeks, start 24.9%", "result": 22.3, "unit": "%"}, {"measurement": "fat at end of treatment", "setting": "[1]; Example 2: 2,000 mg/day, seven weeks, start 55 pounds", "result": 55, "unit": "pounds"}, {"measurement": "muscle, bone and connective tissue at end of treatment", "setting": "[1]; Example 2: 2,000 mg/day, seven weeks, start 165 pounds", "result": 193, "unit": "pounds"}, {"measurement": "percent change in lean body weight", "setting": "[1]; Example 2: 2,000 mg/day, seven weeks, without a change in diet or exercise regimen", "result": 17, "unit": "%"}, {"measurement": "bodyweight at end of treatment", "setting": "[1]; Example 2: healthy person, 500 mg capsule four times per day (2,000 mg/day), seven weeks, start 220 pounds", "result": 248, "unit": "pounds"}, {"measurement": "percentage bodyfat at end of treatment", "setting": "[1]; Example 3: 3,000 mg/day, seven weeks, start 18.5%", "result": 15.1, "unit": "%"}, {"measurement": "percent change in lean body weight", "setting": "[1]; Example 3: 3,000 mg/day, seven weeks, no change in diet or exercise regimen", "result": 24.2, "unit": "%"}, {"measurement": "fat at end of treatment", "setting": "[1]; Example 3: 3,000 mg/day, seven weeks, start 38 pounds", "result": 36, "unit": "pounds"}, {"measurement": "muscle, bone and connective tissue at end of treatment", "setting": "[1]; Example 3: 3,000 mg/day, seven weeks, start 165 pounds", "result": 205, "unit": "pounds"}, {"measurement": "bodyweight at end of treatment", "setting": "[1]; Example 3: healthy person, two 500 mg capsules three times per day (3,000 mg/day), seven weeks, start 203 pounds", "result": 241, "unit": "pounds"}, {"measurement": "percentage bodyfat at end of treatment", "setting": "[1]; Example 4: 2,000 mg/day, six weeks, start 17.2%", "result": 14.9, "unit": "%"}, {"measurement": "fat at end of treatment", "setting": "[1]; Example 4: 2,000 mg/day, six weeks, start 36 pounds", "result": 36, "unit": "pounds"}, {"measurement": "muscle, bone and connective tissue at end of treatment", "setting": "[1]; Example 4: 2,000 mg/day, six weeks, start 176 pounds", "result": 203, "unit": "pounds"}, {"measurement": "percent change in lean body weight", "setting": "[1]; Example 4: 2,000 mg/day, six weeks, with a change in diet or exercise regimen (so in the source)", "result": 15.3, "unit": "%"}, {"measurement": "bodyweight at end of treatment", "setting": "[1]; Example 4: healthy person, two 500 mg capsules twice daily (2,000 mg/day), six weeks, start 212 pounds", "result": 239, "unit": "pounds"}, {"measurement": "effect on bodyweight (cachexia)", "setting": "guinea pigs", "result": "promote cachexia"}]}]}
